pKi: −log10 of the molar value.
Assays:
[1] = biological target: T1, NMDA receptor glycine site (Rattus norvegicus, UniProt P35439); experiment: Test A: Inhibition of binding of [3H]-MDL105,519 to brain membranes; settings: [3H]MDL105,519 1.2 nM, brain membranes (rat and human membranes described; table does not say which)
T1 construct: brain membranes bearing the receptor; tissue Analytical Biological Services Inc; host or cells: rat brain membranes (cerebral cortex and hippocampus, male Sprague Dawley rats)
Source text: Test A: Inhibition of Binding of [^3H]-MDL105,519:
Binding of compounds to the NMDA receptor glycine site may be assessed by measuring the ability of test compounds to inhibit the binding of tritiated MDL105,519 to brain membranes bearing the receptor.
Briefly, fresh brain tissue including cerebral cortex and hippocampus from male Sprague Dawley rats was homogenized in 0.32 M sucrose and centrifuged at low speed to separate cellular membranes from other cellular components. The membranes were then washed 3 times using deionized water, followed by treatment with 0.04% Triton X-100. Finally, membranes were washed six times in 50 mM Tris citrate buffer, pH 7.4, and frozen at −80° C. until use.
[^3H]MDL105,519 (72 Ci/mmol) was purchased from Amersham. Cold MDL105,519 was purchased from Sigma/RBI. […] On the day of the experiment, brain membranes were thawed at room temperature and suspended in 50 mM tris acetate buffer, pH 7.4 (“TAB”). Seventy-five micro grams per milliliter protein (by using the BioRad dye) were used for competition binding. The experiments were carried out using 96-well plates. […] Non specific binding was determined by using 100 μM of unlabeled MDL105,519. […] After incubation, unbound [^3H]MDL105,519 was removed by filtration onto GF/B Unifilter plates using a Packard harvester. Filters were washed four times with ice cold TAB (total of 1.2 mL buffer). The plates were dried overnight at room temperature and bound radioactivity was measured on a Packard TopCount after the addition of 45 μL per well of the MICROSCINT O.
Human brain membranes were obtained from Analytical Biological Services Inc., and assays were performed as described for rat membranes.
Data was analyzed using a Microsoft Excel spreadsheet and GraphPad Prizm software and potency of compounds is expressed as the Ki (nM).

[2] = system: formalin-induced nociceptive behaviors in rats; experiment: Test B: Formalin test (formalin-induced nociceptive behaviors, paw flinches); assay type: in vivo, rat; settings: dosed three hours prior to formalin; for Test B First phase Dose (% Inh.): % inhibition of nociceptive response: first phase (0-5 min); for Test B Second phase Dose (% Inh.): % inhibition of nociceptive response: second phase (20-35 min)
Description: In the test, two distinctive phases of formalin-induced behaviors are observed. A first phase response, caused by acute nociception to the noxious chemical (formalin) injected into the paw, occurs between zero and five minutes. […] After the quiescent period a second phase response, caused by sensitization of the central neurons in the dorsal horn, occurs after 15 minutes and lasts up to 60 minutes. Sensitization of the central neurons in the spine augments a noxious afferent input and causes a stronger pain barrage to be transmitted to the brain. Therefore, inhibition of the second phase response indicates a central mechanism of drug action.
The procedure for the formalin test is as follows: male rats are placed in a plexiglass chamber and observed for 30-45 min. to observe their baseline activity. Animals are either pretreated with vehicle or with different doses of a test compound. Animals are dosed with vehicle or test compound three hours prior to injection of 0.05 mL of sterile 1% formalin under the dorsal skin of a hind paw. The number of paw flinches (responses) during the first phase (0-5 min.) and the second phase (20-35 min.) are scored and recorded. Flinch response is compared with the mean score of a saline control group and calculated as percentage inhibition. […] First phase responses may be inhibited by compounds that act peripherally and by compounds that act centrally.
Student's t-test was used for statistical analysis to determine the significance of compound effects. Data are reported as a dose that yielded a % inhibition of a response.

[3] = system: Chronic Constriction Injury (CCI) rats, thermal hyperalgesia; experiment: Test C: Neuropathic pain model (Chronic Constriction Injury), thermal hyperalgesia paw-withdrawal; assay type: in vivo; settings: Rattus norvegicus; for inhibition in vivo at 30 mg/kg/day / inhibition in vivo at 15 mg/kg/day: oral t.i.d., read-out: Test C (% Inh.): percent decrease in hyperalgesia at the MED; for minimal effective dose: po, 120 h, orally three times daily for 5 days, read-out: Test C MED (minimum effective dose)
Source text: Test C: Neuropathic Pain Model (Chronic Constriction Injury):
(Mean of vehicle group−Mean of compound group)/(Mean of vehicle group)×100

Row | Structure (SMILES) | pKi [1] | inhibition in vivo at 30 mg/kg/day [3] | minimal effective dose [3] | inhibition in vivo at 15 mg/kg/day [3] | other results
1 | O=c1c2ccc(Cl)cc2[nH]c2c(O)nn(Cc3ccncn3)c(=O)c12 | 6.29 |  |  |  | 
2 | CS(=O)(=O)O.O=c1c2ccc(Cl)cc2[nH]c2c(O)nn(Cc3ccncc3)c(=O)c12 [Ex. 1, 7-Chloro-4-hydroxy-2-(4-pyridylmethyl)-1,2,5,10-tetrahydropyridazino[4,5-b]quinoline-1,10-dione methanesulfonate] |  | 71% | 30 mg/kg/day |  | Test B First phase Dose (% Inh.): % inhibition of nociceptive response ([2]; dose 70 (dose unit not given)): 70 (52%); Test B Second phase Dose (% Inh.): % inhibition of nociceptive response ([2]; dose 70 (dose unit not given)): 70 (57%)
3 | CS(=O)(=O)O.O=c1c2ccc(Cl)cc2[nH]c2c(O)nn(Cc3cccnc3)c(=O)c12 [Ex. 2, 7-Chloro-4-hydroxy-2-(3-pyridylmethyl)-1,2,5,10-tetrahydropyridazino[4,5-b]quinoline-1,10-dione Methanesulfonate] |  | 59% | 30 mg/kg/day |  | Test B First phase Dose (% Inh.): % inhibition of nociceptive response ([2]; dose 200 (dose unit not given)): 200 (74%); Test B Second phase Dose (% Inh.): % inhibition of nociceptive response ([2]; dose 200 (dose unit not given)): 200 (71%)
4 | O=c1c2ccc(Cl)cc2[nH]c2c(O)nn(Cc3cc4ccccc4o3)c(=O)c12 [Ex. 4, 7-Chloro-4-hydroxy-2-benzo[d]furan-2-ylmethyl-1,2,5,10-tetrahydropyridazino[4,5-b]quinoline-1,10-dione] |  | 44% | 30 mg/kg/day |  | 
5 | O=c1c2ccc(Cl)cc2[nH]c2c(O)nn(Cc3ccnc4ccccc34)c(=O)c12 [Ex. 5, 7-Chloro-4-hydroxy-2-(quinolin-4-ylmethyl)-1,2,5,10-tetrahydropyridazino[4,5-b]quinoline-1,10-dione] | 6.43 |  |  |  | 
6 | CS(=O)(=O)O.O=c1c2ccc(Cl)cc2[nH]c2c(O)nn(Cc3cnccn3)c(=O)c12 [Ex. 6, 7-Chloro-4-hydroxy-2-(pyrazin-2-ylmethyl)-1,2,5,10-tetrahydropyridazino[4,5-b]quinoline-1,10-dione methanesulfonate] |  | 64% | 30 mg/kg/day |  | 
7 | O=c1c2ccc(Cl)cc2[nH]c2c(O)nn(Cc3ccco3)c(=O)c12 [Ex. 9, 7-Chloro-4hydroxy-2-(furan-2-ylmethyl)-1 2,5,10-tetrahydropyridazino[4,5-b]quinoline-1,10-dione] | 7.21 |  | 15 mg/kg/day | 77% | Test B First phase Dose (% Inh.): % inhibition of nociceptive response ([2]; dose 200 (dose unit not given)): 200 (56%); Test B Second phase Dose (% Inh.): % inhibition of nociceptive response ([2]; dose 200 (dose unit not given)): 200 (46%); melting point: > 265 °C
8 | O=c1c2ccc(Cl)cc2[nH]c2c(O)nn(Cc3cccs3)c(=O)c12 [Ex. 11, 7-Chloro-4-hydroxy-2-(thien-2-ylmethyl)-1,2,5,10-tetrahydropyridazino[4,5-b]quinoline-1,10dione] |  |  | 15 mg/kg/day | -17% | 
9 | O=c1c2ccc(Cl)cc2[nH]c2c(O)nn(Cc3ccsc3)c(=O)c12 [Ex. 12, 7-Chloro-4-hydroxy-2-(thien-3-ylmethyl)-1,2,5,10-tetrahydropyridazino[4,5-b]quinoline-1,10-dione] |  |  | 15 mg/kg/day | 17% | 
10 | O=c1c2ccc(Cl)cc2[nH]c2c(O)nn(Cc3cc4ccccc4s3)c(=O)c12 [Ex. 13, 7-Chloro-4-hydroxy-2-(benzo[b]thien-2-ylmethyl)-1,2,5,10-tetrahydropyridazino[4,5-b]quinoline-1,10-dione] |  |  | 15 mg/kg/day | 1% | 
11 | O=c1c2ccc(Cl)cc2[nH]c2c(O)nn(Cc3ncc[nH]3)c(=O)c12 [Ex. 15, 7-Chloro-4-hydroxy-2-(imidazol-2-ylmethyl)-1,2,5,10-tetrahydropyridazino[4,5-b]quinoline-1,10-dione] | 6.99 |  |  |  | 

Reference: patent publication US20030162783A1 (priority 1999, published 2003)
